Patent US20230406865A1, “CRYSTAL FORM OF FREE BASE OF INHIBITOR CONTAINING BICYCLIC RING DERIVATIVE AND PREPARATION METHOD AND APPLICATION OF CRYSTAL FORM” (SHANGHAI HANSOH BIOMEDICAL CO., LTD., priority 2020, published 2023)

Tests used:
[1] = biological target: T1, CCDC6-RET (Homo sapiens, UniProt P07949); assay: HTRF kinase activity inhibition, CCDC6-RET; type: biochemical; conditions: ATP at Km
T1 construct: purchased SignalChem R02-19BG-05; the other entry of the earlier key: CCDC6 (Q16204, Coiled-coil domain-containing protein 6)
T1 sequence (P07949 with tags, fused parts or gaps): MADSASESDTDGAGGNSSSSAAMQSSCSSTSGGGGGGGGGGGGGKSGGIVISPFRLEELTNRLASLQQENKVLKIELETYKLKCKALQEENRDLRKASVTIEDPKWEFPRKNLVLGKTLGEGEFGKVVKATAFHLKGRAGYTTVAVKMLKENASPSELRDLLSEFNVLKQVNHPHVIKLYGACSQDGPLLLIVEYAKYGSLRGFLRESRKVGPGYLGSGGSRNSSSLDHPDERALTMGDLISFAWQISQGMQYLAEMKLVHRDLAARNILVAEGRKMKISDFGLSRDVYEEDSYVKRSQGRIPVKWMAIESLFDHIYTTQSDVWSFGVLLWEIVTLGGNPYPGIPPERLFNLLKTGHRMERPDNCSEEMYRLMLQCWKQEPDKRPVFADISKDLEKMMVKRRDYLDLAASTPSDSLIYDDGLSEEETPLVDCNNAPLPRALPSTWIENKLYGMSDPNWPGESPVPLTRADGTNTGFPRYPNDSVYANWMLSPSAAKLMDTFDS
Description: 2.2 Experimental Reagents: • RET enzyme was purchased from Carna Company, and the article number was 08-159; • RET M918T enzyme was purchased from Carna Company, and the article number was 08-508; • KIF5B-RET was purchased from SignalChem Company, the article number was R02-19FG-05; • CCDC6-RET was purchased from SignalChem Company, the article number was R02-19BG-05; • RET V804M enzyme was purchased from Thermofisher Company, and the article number was PV6223; • RET V804L enzyme was purchased from Thermofisher Company, and the article number was PV4397; • HTRF KinEASE-TK kit was purchased from Cisbio Company, and the article number was 62TK0PEC; • ATP was purchased from Thermofisher Company, and the article number was PV3227; • 384-well plate was purchased from PerkinElmer Company, and the article number was 6007290.
In this experiment, a homogeneous time-resolved fluorescence (HTRF) method was used for the detection of compounds on RET kinase activity.

[2] = tested on: phosphorylation of ERK, a downstream signal factor of TT cells; assay: Inhibition of ERK phosphorylation in TT cells (Western Blot); type: cell-based, human; conditions: for inhibition of ERK phosphorylation: 2 hours, TT cells; for inhibition of phosphorylation level of ERK in TT cells: 3.7-300 nM, 2 hours at 37° C., Western Blot
Description: 2.2 Experimental Reagents: • pERK antibody was purchased from Cell Signaling Technology Company, the article number was 43705; • Total ERK antibody was purchased from Cell Signaling Technology Company, the article number was 4696S; • The internal reference GAPDH was purchased from Cell Signaling Technology Company, the article number was 51745; • The fluorescent secondary antibodies were purchased from LI-COR Company, the article numbers were P/N 925-68071 and P/N 926-32210.
In this experiment, the inhibitory effect of compounds on the phosphorylation level of ERK, a downstream signaling factor in TT cells was measured by Western Blot method. When TT cells were cultured to the appropriate fusion level, the cells were collected and adjusted to the appropriate cell concentration using complete medium, the cell suspension was spread in a 24-well plate, 1 mL per well, and placed in the wall of a 37° C., 5% CO2 incubator overnight, and compound dilutions of different concentrations (3.7 nM, 11.1 nM, 33.3 nM, 100 nM, 300 nM) were added at 37° C. and acted for 2 hours; the cell supernatant was aspirated, washed one time with PBS, and the proteins were collected with lysate; after protein denaturation, Western blot experiments were performed: performing protein electrophoresis at 120V for approximately 75 minutes, followed by 45 minutes of transfer to PVDF membranes at 10V with a semi-dry transfer instrument, enclosing at 5% BSA for 1 hour at room temperature, and then PVDF membranes were cut into strips of appropriate size and incubated with prepared antibody dilutions overnight at 4° C. and washed 6 times with TBST, followed by incubating with goat anti-mouse secondary antibody and goat anti-rabbit secondary antibody for 1 hour at room temperature, and the membrane was washed 6 times with TBST for imaging in the Biorad ChemiDoc™ MP Imaging System.
The inhibitory effect of compounds on ERK phosphorylation levels in TT cells at different concentrations was determined by detecting protein bands.

[3] = tested on: xenograft tumor of human myeloid thyroid cancer cell TT; assay: Subcutaneous xenograft tumor model of human myeloid thyroid cancer cell TT; type: in vivo, BALB/c nude mice
Description: BALB/c nude mice, female, 6-8 weeks old, weighing 18-22 g, provided by Shanghai Lingchang Biotechnology Co., Ltd.
TT cells were cultured in vitro in a monolayer under the following conditions: F-12K medium with 20% heat-inactivated fetal bovine serum and 1% penicillin-streptomycin double antibodies at 37° C. and 5% CO2. Digestion with trypsin-EDTA was performed to treat the passage twice a week. When cells were in an exponential growth period, cells were collected, counted and inoculated.
TT cells were collected when they were full in a logarithmic growth period, ensuring vitality over 90%. 0.2 mL of cell suspension containing about 1×10^7 of TT cells (cells suspended in basic F-12K medium and added with 50% Matrigel) was inoculated subcutaneously into the right back […] of each mouse when the mean volume of the tumor reached about 150-200 mm^3 to start group administration.
1. The day of grouping was day 0 (DO). The interval of BID administration was 6-8 h/18-16 h. The first administration was given in the afternoon of day DO and the last administration was given in the morning of day D21.
2. Administration volume: 10 μL/g according to the body weight of nude mice.
Animal grouping: animals were weighed before administration and the tumor volume was measured. Animals were randomly grouped according to tumor volume (randomized grouping design) with 5 animals per group.
Experimental index: the diameter of tumor was measured by vernier caliper twice a week. The tumor volume was calculated by the formula: V=a×b^2/2, a and b denote the long and short diameter of the tumor, respectively. The tumor inhibition efficacy of the compounds was evaluated by TGI (%). TGI (%)=(1-(TVTreatment/Dx−TVTreatment/D1)/(TVControl/Dx−TVControl/D1))×100%.

IC50 [1] [nM]	Compound	inhibition of ERK phosphorylation ([2]; 3.7 nM)	inhibition of ERK phosphorylation ([2]; 11.1 nM)	inhibition of ERK phosphorylation ([2]; 33.3 nM)	inhibition of ERK phosphorylation ([2]; 100 nM)	inhibition of ERK phosphorylation ([2]; 300 nM)	inhibition of phosphorylation level of ERK in TT cells [2]	Tumor volume (mean ± SEM) d 0 ([3]; 30 mg/kg oral BID) [mm^3]	Tumor inhibition rate/TGI d 22 ([3]; 30 mg/kg oral BID) [%]	Tumor volume (mean ± SEM) d 22 ([3]; 30 mg/kg oral BID) [mm^3]	Tumor volume (mean ± SEM) d 0 ([3]; 10 mg/kg oral BID) [mm^3]	Tumor inhibition rate/TGI d 22 ([3]; 10 mg/kg oral BID) [%]	Tumor volume (mean ± SEM) d 22 ([3]; 10 mg/kg oral BID) [mm^3]
1.74	C#C[C@](C)(O)COc1cc(-c2ccc(N3CC4CC(C3)N4Cc3ccc(OC)nc3)nc2)c2c(C#N)cnn2c1 [Embodiment 64, 6-(((S)-2-hydroxy-2-methylbut-3-yn-1-yl)oxy)-4-(6-(6-((6-methoxypyridin-3-yl)methyl)-3,6-diazabicyclo[3.1.1]heptan-3-yl)pyridin-3-yl)pyrazolo[1,5-a]pyridine-3-carbonitrile]	the inhibition level was weaker	half	the degree of inhibition was reduced	completely inhibit	completely inhibit	significantly inhibit						
	COc1ncc(CN2C3CC2CN(c2ccc(-c4cc(C#CC(C)(C)O)cn5ncc(C#N)c45)cn2)C3)cc1F [Embodiment 18, 4-(6-(6-((5-Fluoro-6-methoxypyridin-3-yl)methyl)-3,6-diazabicyclo[3.1.1]heptan-3-yl)pyridin-3-yl)-6-(3-hydroxy-3-methylbut-1-yn-1-yl)pyrazolo[1,5-a]pyridine-3-carbonitrile]							199.73 ± 24.07	99.64	203.56 ± 31.74			
0.85	C#C[C@@](C)(O)COc1cc(-c2ccc(N3CC4CC(C3)N4Cc3ccc(OC)nc3)nc2)c2c(C#N)cnn2c1 [Embodiment 63, 6-(((R)-2-hydroxy-2-methylbut-3-yn-1-yl)oxy)-4-(6-(6-((6-methoxypyridin-3-yl)methyl)-3,6-diazabicyclo[3.1.1]heptan-3-yl)pyridin-3-yl)pyrazolo[1,5-a]pyridine-3-carbonitrile]	about half	almost completely inhibited	almost completely inhibited	almost completely inhibited	almost completely inhibited	significantly inhibit						

Compound	IC50 [1] [nM]	inhibition of ERK phosphorylation ([2]; 3.7 nM)	inhibition of ERK phosphorylation ([2]; 11.1 nM)	inhibition of ERK phosphorylation ([2]; 33.3 nM)	inhibition of ERK phosphorylation ([2]; 100 nM)	inhibition of ERK phosphorylation ([2]; 300 nM)	inhibition of phosphorylation level of ERK in TT cells [2]	Tumor volume (mean ± SEM) d 0 ([3]; 30 mg/kg oral BID) [mm^3]	Tumor inhibition rate/TGI d 22 ([3]; 30 mg/kg oral BID) [%]	Tumor volume (mean ± SEM) d 22 ([3]; 30 mg/kg oral BID) [mm^3]	Tumor volume (mean ± SEM) d 0 ([3]; 10 mg/kg oral BID) [mm^3]	Tumor inhibition rate/TGI d 22 ([3]; 10 mg/kg oral BID) [%]	Tumor volume (mean ± SEM) d 22 ([3]; 10 mg/kg oral BID) [mm^3]
COc1ccc(CN2C3CC2CN(c2ccc(-c4cc(N5CC(C)(C#N)C5)cn5ncc(C#N)c45)cn2)C3)cn1 [Embodiment 77, 6-(3-Cyano-3-methylazetidin-1-yl)-4-(6-(6-((6-methoxypyridin-3-yl)methyl)-3,6-diazabicyclo[3.1.1]heptan-3-yl)pyridin-3-yl)pyrazolo[1,5-a]pyridine-3-carbonitrile]	0.98										205.23 ± 16.57	129.77	144.14 ± 8.95
